Results taken from patent US4866206A, “2-Halomethyl derivatives of 2-amino acids” (Merrell Dow France et Cie, priority 1988, dated 1989).
Read-outs that look alike come from different tables or passages of the source.

Legend:
[1] = biological target: T1, rat liver ornithine decarboxylase (Rattus norvegicus, UniProt P09057); test: time-dependent inhibition of rat liver ODC (in vitro); assay type: biochemical
T1 construct: rat liver ornithine decarboxylase in vitro; from tissue; host or cells: rat liver
T1 sequence (P09057 1-461): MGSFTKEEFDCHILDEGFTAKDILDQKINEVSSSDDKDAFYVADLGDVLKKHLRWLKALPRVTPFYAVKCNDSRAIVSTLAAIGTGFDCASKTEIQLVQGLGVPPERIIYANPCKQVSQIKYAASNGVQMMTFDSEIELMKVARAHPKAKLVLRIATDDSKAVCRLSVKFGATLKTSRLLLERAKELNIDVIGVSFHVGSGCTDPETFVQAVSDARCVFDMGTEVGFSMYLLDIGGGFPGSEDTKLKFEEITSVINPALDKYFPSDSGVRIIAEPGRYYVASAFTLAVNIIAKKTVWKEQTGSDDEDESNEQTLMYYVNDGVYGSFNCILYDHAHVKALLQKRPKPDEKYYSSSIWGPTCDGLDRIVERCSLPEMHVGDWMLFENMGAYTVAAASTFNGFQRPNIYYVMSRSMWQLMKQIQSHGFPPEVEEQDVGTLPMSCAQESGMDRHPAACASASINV

ornithine decarboxylase = biological target: T2, ornithine decarboxylase (Rattus norvegicus, UniProt P09057); test: ODC activity remaining in rat tissues after a single dose (in vivo); set-up: species or system rats
T2 construct: from tissue; host or cells: rat ventral prostate and thymus
T2 sequence (P09057 1-461): T1 sequence (P09057 1-461)
Description: The ODC inhibitory activity of a compound can be determined in vitro by the method described by B. Metcalf et al., J. Am. Chem. Soc., 100, 2551 (1978) and in vivo by the method of C. Danzin, Life Sciences, 24, 519 (1979).
2-Fluoromethyl-2,5-diaminopentanoic acid and 2-fluoromethyl-2,6-diaminohexanoic acid were tested for inhibition of ornithine decarboxylase in rats according to the procedure of C. Danzin et al., Life Sciences, 24, 519 (1979).

E. coli (M.R.C; 59) = test: growth and polyamine content of E. coli cultures; assay type: cell-based; settings: compound by itself
prostatic growth in rats = test: effect on prostatic growth in rats; assay type: in vivo; settings: for % Weight loss of prostate: oral administration for 3 days
Source text: Accordingly, the compounds of Formula I can be used as contragestational agents (abortifacients) in female animals when it is desired to terminate early pregnancy. The use of 2-fluoromethyl-2,5-diaminopentanoic acid, and derivatives thereof, as a contragestational agent is described and claimed in U.S. Pat. No. 4,309,442 of P. Bey and M. Jung. […] Danzin et al., Biochem. J., 202, 175 (1982). Accordingly, the compounds of Formula I can be used to treat benign prostatic hypertrophy. The use of 2-fluoromethyl-2,5-diaminopentanoic acid, and derivatives thereof, in the treatment of benign prostatic hypertrophy is described and claimed in the U.S. Pat. No. 4,330,559 of P. Bey and M. Jung.
2-Fluoromethyl-2,5-diaminopentanoic acid was tested for its effect on prostatic growth in rats according to the procedure of C. Danzin et al., Biochem. J., 202, 175 (1982).
(a) Administered dissolved in drinking water employed as only water source for the animals.

E. coli ODC [2] = biological target: T3, E. coli ODC (Escherichia coli, UniProt P21169); test: time-dependent inhibition of bacterial ODC (in vitro), E. coli; assay type: biochemical, Escherichia coli (M.R.C. 59); set-up: supernatant (approximately 16 mg protein/ml), used for the measurement of ornithine decarboxylase; endogenous in cells; host or cells: Escherichia coli M.R.C; 59, supernatant of sonicated cells
Description: (§1) 2-Fluoromethyl-2,5-diaminopentanoic acid (MFMO) was tested for in vitro inhibition of ornithine decarboxylase from Escherichia coli and from Pseudomonas aeruginosa according to the procedure described as follows:
(§2) Escherichia coli (M.R.C. 59) and Pseudomonas aeruginosa (A.T.C.C. 9027) were grown as described by Kallio et al., Biochem. J., 200, 69 (1981) in minimal medium [Davis et al., J. Bacteriol., 60, 17 (1950)] at 37° C. Cells were harvested by centrifugation (10 minutes at 10,000 g) and washed once with phosphate-buffered saline, pH 7.2 (0.125M NaCl, 10 mM Na2 HPO4, and 3 mM KH2 PO4). The cell pellet was suspended in 10 mM Tris/HCl (pH 7.5) containing 1 mM dithiothreitol and 0.1 mM EDTA and disrupted by sonication with a Branson Cell Disruptor 350 (5×30 sec, setting 3). Cell debris was removed by centrifugation at 25,000 g for 30 minutes and the supernatant (approximately 16 mg protein/ml), used for the measurement of ornithine decarboxylase, was stored frozen at -20° C. without appreciable loss of activity.
(§3) Ornithine decarboxylase activity was measured by the release of ^14 Co2. Assays contained 100 mM tris/HCl (pH 8.25 for E. coli and pH 7.5 for P. aeruginosa), 0.04 mM pyridoxal phosphate, 1mM dithiotheritol, 10 mM L-ornithine, 2.5 μCi D,L-[1-^14 C]ornithine and 80-120 μg bacterial protein in a total volume of 1 ml. […]
(§4) Time dependent irreversible inhibition of ornithine decarboxylase was determined according to the method of Kallio et al., Biochem. J., 200, 69 (1981). […] At selected times, 20 μl aliquots of the enzyme incubate were removed and transferred to the reaction flasks in which ODC activity was determined. […] The flasks were kept on ice until all time points were taken and then D,L-[1-^14 C]-ornithine was added and ODC activity was determined at 37° C. […]
(§5) Kinetic parameters for the inhibition of ODC were determined as described by Kitz, J. Biol. Chem., 237, 3245 (1962) as modified by Jung et al., Biochem. Biophys. […]

P. aeruginosa ODC = biological target: T4, P. aeruginosa ODC (Pseudomonas aeruginosa, UniProt Q9HVQ3); test: time-dependent inhibition of bacterial ODC (in vitro), P. aeruginosa; assay type: biochemical
T4 construct: 14CO2 release from ornithine
T4 sequence (Q9HVQ3 1-387): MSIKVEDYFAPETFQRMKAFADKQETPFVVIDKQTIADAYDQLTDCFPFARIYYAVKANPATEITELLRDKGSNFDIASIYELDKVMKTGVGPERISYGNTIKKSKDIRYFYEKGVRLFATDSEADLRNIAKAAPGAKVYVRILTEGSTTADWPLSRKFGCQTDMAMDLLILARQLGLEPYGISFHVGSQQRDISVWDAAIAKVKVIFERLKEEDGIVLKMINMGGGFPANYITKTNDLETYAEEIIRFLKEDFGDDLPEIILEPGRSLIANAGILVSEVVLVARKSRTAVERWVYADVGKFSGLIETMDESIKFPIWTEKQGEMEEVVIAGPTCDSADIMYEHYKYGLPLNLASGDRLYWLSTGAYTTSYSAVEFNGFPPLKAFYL
Description: as §1, §2, §3, §4, §5

[3] = system: P. aeruginosa (A.T.C.C. 9027); test: growth and polyamine content of P. aeruginosa cultures; assay type: cell-based; settings: compound by itself
E. coli ODC [4] = biological target: T3, E. coli ODC; assay type: cell-based
female mice = test: contragestational activity in mice; assay type: in vivo; settings: for Resorption nodules gravid female / Viable feti gravid female: autopsy day 18
Description: 2-Fluoromethyl-2,5-diaminopentanoic acid (MFM) was tested for contragestational activity in mice according to the procedure of J. Fozard et al., Eur. J. Pharmacol., 65, 379 (1980).
In this experiment, the compound was given at the doses stated, subcutaneously (s.c.), every 6 hours starting at 12:00 on day 8 of gestation (4 doses). Animals were autopsied on day 18 and the numbers of viable feti and resorption nodules recorded.

ODC of P. aeruginosa = biological target: T5, ODC of P. aeruginosa (Pseudomonas aeruginosa, UniProt Q9HVQ3); test: ODC inhibition in intact P. aeruginosa cells; assay type: cell-based; settings: in words
T5 sequence (Q9HVQ3 1-387): T4 sequence (Q9HVQ3 1-387)
Source text: However, by itself, α-MFMO has no effect on cell growth. Thus, […] inhibitory activity is useful only when used in combination with agents which will block other routes of polyamine biosynthesis, e.g. with both (a) α-difluoromethyl arginine, which inhibits arginine decarboxylase, and (b) dicyclohexylammonium sulfate, which inhibits spermidine synthesis.

[5] = concentration of compound which gives half-maximal rate of inhibition, time-dependent inhibition
[6] = half-life of inhibition at 10 μM inhibitor
[7] = half-life of inhibition at infinite concentration of inhibitor
[8] = 50 mg/kg s.c. every 6 hours from day 8 of gestation (4 doses)
[9] = 100 mg/kg s.c. every 6 hours from day 8 of gestation (4 doses)
[10] = 200 mg/kg s.c. every 6 hours from day 8 of gestation (4 doses)
[11] = 400 mg/kg s.c. every 6 hours from day 8 of gestation (4 doses)
[12] = 6 hours after single oral dose, 12.5 mg/kg
[13] = 6 hours after single oral dose, 25 mg/kg
[14] = 6 hours after single oral dose, 50 mg/kg
[15] = 6 hours after single oral dose, 100 mg/kg

T3 sequence (P21169 whole entry): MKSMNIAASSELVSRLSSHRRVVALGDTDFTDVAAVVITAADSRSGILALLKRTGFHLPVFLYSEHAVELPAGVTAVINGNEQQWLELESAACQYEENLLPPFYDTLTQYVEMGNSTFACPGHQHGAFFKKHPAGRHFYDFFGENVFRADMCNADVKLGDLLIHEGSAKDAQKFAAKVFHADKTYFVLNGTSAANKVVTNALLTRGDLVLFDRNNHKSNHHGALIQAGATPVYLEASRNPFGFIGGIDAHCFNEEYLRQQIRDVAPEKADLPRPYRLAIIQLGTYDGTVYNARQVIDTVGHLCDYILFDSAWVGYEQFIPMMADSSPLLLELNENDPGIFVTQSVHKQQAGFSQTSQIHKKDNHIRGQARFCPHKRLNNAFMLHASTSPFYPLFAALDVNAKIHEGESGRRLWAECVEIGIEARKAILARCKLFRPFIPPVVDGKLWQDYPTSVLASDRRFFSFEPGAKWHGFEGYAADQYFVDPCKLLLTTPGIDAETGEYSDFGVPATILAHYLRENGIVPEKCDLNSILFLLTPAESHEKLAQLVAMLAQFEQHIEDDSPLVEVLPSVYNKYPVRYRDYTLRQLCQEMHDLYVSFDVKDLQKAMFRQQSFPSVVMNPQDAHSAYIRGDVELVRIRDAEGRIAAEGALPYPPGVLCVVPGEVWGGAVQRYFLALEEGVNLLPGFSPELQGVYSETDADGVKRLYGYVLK

## NCCCCC(N)(CCl)C(=O)O (stereo not drawn) [MCML, 2-chloromethyl-2,6-diaminohexanoic acid]
[1]
  T1/2: no apparent saturation
  t1/2 at 10 μM: 62 min

## NCCCC(N)(CCl)C(=O)O (stereo not drawn) [MCMO, 2-chloromethyl-2,5-diaminopentanoic acid]
[1]; [5]
  K I: no apparent saturation
[1]; [6]
  t1/2 at 10 μM: 22 min
[1]; [7]
  T1/2: no apparent saturation

## NCCCCC(N)(CF)C(=O)O (stereo not drawn) [MFML, 2-fluoromethyl-2,6-diaminohexanoic acid]
[1]; [5]
  Ki: 430 µM
[1]; [6]
  t1/2 at 10 μM: 88 min
[1]; [7]
  T1/2: 2.0 min
Ornithine decarboxylase; single oral dose 200 mg/kg, 3 h
  ODC Activity remaining in ventral prostate: 66 ± 6 % Control
Ornithine decarboxylase; single oral dose 200 mg/kg, 6 h
  ODC Activity remaining in ventral prostate: 44 ± 10 % Control
Ornithine decarboxylase; single oral dose 200 mg/kg, 12 h
  ODC Activity remaining in ventral prostate: 74 ± 7 % Control

## NCCCC(N)(CF)C(=O)O (stereo not drawn) [MFMO, 2-Fluoromethyl-2,5-diaminopentanoic acid]
E. coli (M.R.C; 59)
  effect on cell growth: no effect
Prostatic growth in rats; 3.75 g/l in drinking water
  % Weight loss of prostate: -10%
Prostatic growth in rats; 7.5 g/l in drinking water
  % Weight loss of prostate: -14%
Prostatic growth in rats; 15 g/l in drinking water
  % Weight loss of prostate: -19%
Prostatic growth in rats; rats, method of Danzin
  weight of the ventral prostate: significant decrease
E. coli ODC [2]; E. coli ODC, concentration giving half-maximal rate of inhibition, 20° C., pH 8.25
  Ki: 360 µM
E. coli ODC [2]; E. coli ODC, half-life at infinite concentrations
  T1/2: 12 min
E. coli ODC [2]; in vitro, in words
  inhibition of ODC of E. coli in vitro: inhibit
P. aeruginosa ODC; P. aeruginosa ODC, concentration giving half-maximal rate of inhibition, 20° C., pH 7.5
  Ki: 300 µM
P. aeruginosa ODC; P. aeruginosa ODC, half-life at infinite concentrations
  T1/2: 12 min
P. aeruginosa ODC; in vitro, in words
  inhibition of ODC of P. aeruginosa in vitro: inhibit
[1]; [5]
  Ki: 75 µM
[1]; [6]
  t1/2 at 10 μM: 14 min
[1]; [7]
  T1/2: 1.6 min
[3]
  effect on cell growth: no effect
E. coli ODC [4]; bacteria grown in the presence of 2 mM of the compound
  inhibition at 2000 µM: 99%
E. coli ODC [4]; intact cells, in words
  inhibition of ODC of E. coli in intact cells: inhibit
Female mice; [8]
  Resorption nodules gravid female: 3.3 ± 1.1
  Viable feti gravid female: 9.1 ± 1.5
Female mice; [9]
  Resorption nodules gravid female: 2.3 ± 0.6
  Viable feti gravid female: 12.7 ± 0.9
Female mice; [10]
  Resorption nodules gravid female: 4.2 ± 1.2
  Viable feti gravid female: 9.2 ± 1.5
Female mice; [11]
  Resorption nodules gravid female: 8.9 ± 1.9
  Viable feti gravid female: 5.4 ± 1.5
Female mice; female mice, method of Fozard
  interruption of embryogenesis: capable of interrupting embryogenesis
Ornithine decarboxylase; 5 hours after single i.p. injection, 12.5 mg/kg
  ODC Activity remaining in ventral prostate: 70.5 ± 12.5 % Control
Ornithine decarboxylase; 5 hours after single i.p. injection, 25 mg/kg
  ODC Activity remaining in ventral prostate: 77.0 ± 10.5 % Control
Ornithine decarboxylase; 5 hours after single i.p. injection, 50 mg/kg
  ODC Activity remaining in ventral prostate: 57.0 ± 13.0 % Control
Ornithine decarboxylase; 5 hours after single i.p. injection, 100 mg/kg
  ODC Activity remaining in ventral prostate: 14.5 ± 10.0 % Control
Ornithine decarboxylase; 5 hours after single i.p. injection, 200 mg/kg
  ODC Activity remaining in ventral prostate: 15.5 ± 1.0 % Control
Ornithine decarboxylase; [12]
  ODC Activity remaining in thymus: 81 ± 6 % Control
  ODC Activity remaining in ventral prostate: 98 ± 18 % Control
Ornithine decarboxylase; [13]
  ODC Activity remaining in thymus: 93 ± 8 % Control
  ODC Activity remaining in ventral prostate: 67 ± 7 % Control
Ornithine decarboxylase; [14]
  ODC Activity remaining in thymus: 99 ± 5 % Control
  ODC Activity remaining in ventral prostate: 45 ± 7 % Control
Ornithine decarboxylase; [15]
  ODC Activity remaining in thymus: 87 ± 6 % Control
  ODC Activity remaining in ventral prostate: 44 ± 6 % Control
ODC of P. aeruginosa
  inhibition of ODC of P. aeruginosa in intact cells: inhibit
